Like-named read-outs stand apart in the source and are kept apart here.
Experiments:
[1] = test system: Sterol Biosynthesis in L6 Rat Myoblast; assay: Sterol biosynthesis in L6 rat myoblast (14C acetic acid into cholesterol); type: cell-based; conditions: 3 hours pre-incubation, 3 hours 14C acetic acid labeling
Protocol: C.) Protocol for Sterol Biosynthesis in L6 Rat Myoblast:
(§1) Cell culture, compounds treatment and cell labeling:
L6 rat myoblast purchased from ATCC (CRL-1458) were grown in T-150 vented culture flasks and seeded on 12-well culture plates at a density of 60,000 cells per well. The cells were grown in DMEM, (Dulbecco's Modified Eagle Medium) (Gibco, #10567-014) containing 10% heat inactivated FBS (Fetal Bovine Serum) (Gibco # 10082-139) for 72 hours until reaching confluence. The cells were pre-incubated in media with compound and 0.2% DMSO (dimethyl sulfoxide) for 3 hours and then labeled by incubating in medium containing compound, 0.2% DMSO and 1 □]Ci/per mL of ^14C acetic acid for an additional 3 hours. After labeling, the cells were washed once with 1×PBS (Gibco #14190-144) then lysed overnight at 4° C. in buffer containing 10% KOH and 78%(vol.) ethanol. Cholesterol extraction and data analysis:
Lipid ester bonds were hydrolyzed by saponification of the lysates at 60° C. for 2 hours. Sterols (including cholesterol) were extracted from saponified lysates by combining with 3 volumes of hexane and mixing by pipette 6 times. The upper organic phase solution was collected and combined with an equal volume of 1 N KOH in 50% methanol and mixed by pipette 6 times. The upper organic phase was collected in a scintilant-coated plate (Wallac #1450-501) and hexanes removed by evaporation at room temperature for 3 hours. The amount of ^14C cholesterol was quantified by scintillation counting in a Trilux 1450 plate reader (Wallac). The IC50 values were calculated from % inhibitions relative to negative controls vs. compound concentration on Microsoft excel 2000 data analysis wizard using a sigmoid inhibition curve model with formula: y=Bmax (1−(x^n/K^n+x^n))+y2
Where K is the IC50 for the inhibition curve, X is inhibitor concentration, Y is the response being inhibited and Bmax+Y2 is the limiting response as X approaches zero.

[2] = test system: Sterol Biosynthesis in Rat Hepatocytes; assay: Sterol biosynthesis in rat hepatocytes (14C acetic acid into cholesterol); type: cell-based; conditions: Hepatocyte
Protocol: Protocol for Sterol Biosynthesis in Rat Hepatocytes:
as §1
Frozen rat hepatocytes purchased from XenoTech (cat# N400572) were seeded on 6-well collagen I coated plates at a density of 10^5 cells/per well. The cells were grown in DMEM, (Dulbecco's Modified Eagle Medium) (Gibco, #11054-020) containing 10% FBS (Fetal Bovine Serum) and 10 mM HEPES, (N-2-hydroxyethyl-piperazine-N^1-2-ethane sulfonic acid) (Gibco # 15630-080) for 24 hrs. The cells were pre-incubated with compounds for 4 hrs and then labeled by incubating in medium containing 1 uCVper mL of ^14C acetic acid for an additional 4 hrs. After labeling, the cells were washed twice with 5 mM MOPS, (3-[N-morpholino] propane sulfonic acid) solution containing 150 mM NaCl and 1 mM EDTA and collected in the lysis buffer containing 10% KOH and 80% (vol.) ethanol. Cholesterol extraction and data analysis:
In order to separate labeled cholesterol from labeled non-cholesterol lipids, the cells lysates were subject to saponification at 60° C. for 2 hrs. The lysates were then combined with 0.5 volume of H2O and 2 volumes of hexane, followed by 30 minutes of vigorous shaking. After the separation of two phases, the upper-phase solution was collected and combined with 5 volumes of scintillation cocktail. The amount of ^14C cholesterol was quantified by liquid scintillation counting. The IC50 values were calculated with GraphPad software (Prism 3.03).

[3] = molecular target: T1, HMGCoA (3-Hydroxy-3-methylglutaryl CoA) Reductase (Rattus norvegicus, UniProt P51639); assay: HMGCoA reductase assay with rat liver microsomes (14C-HMGCoA); type: biochemical; conditions: in vitro assay, 45 min at 37° C.
T1 construct: Male Charles River Sprague-Dawley rats were fed with 2.5% cholestyramine in rat chow diets for 5 days before sacrificing; from tissue; host or cells: liver microsomes of male Sprague-Dawley rats fed cholestyramine
T1 sequence (P51639 1-887): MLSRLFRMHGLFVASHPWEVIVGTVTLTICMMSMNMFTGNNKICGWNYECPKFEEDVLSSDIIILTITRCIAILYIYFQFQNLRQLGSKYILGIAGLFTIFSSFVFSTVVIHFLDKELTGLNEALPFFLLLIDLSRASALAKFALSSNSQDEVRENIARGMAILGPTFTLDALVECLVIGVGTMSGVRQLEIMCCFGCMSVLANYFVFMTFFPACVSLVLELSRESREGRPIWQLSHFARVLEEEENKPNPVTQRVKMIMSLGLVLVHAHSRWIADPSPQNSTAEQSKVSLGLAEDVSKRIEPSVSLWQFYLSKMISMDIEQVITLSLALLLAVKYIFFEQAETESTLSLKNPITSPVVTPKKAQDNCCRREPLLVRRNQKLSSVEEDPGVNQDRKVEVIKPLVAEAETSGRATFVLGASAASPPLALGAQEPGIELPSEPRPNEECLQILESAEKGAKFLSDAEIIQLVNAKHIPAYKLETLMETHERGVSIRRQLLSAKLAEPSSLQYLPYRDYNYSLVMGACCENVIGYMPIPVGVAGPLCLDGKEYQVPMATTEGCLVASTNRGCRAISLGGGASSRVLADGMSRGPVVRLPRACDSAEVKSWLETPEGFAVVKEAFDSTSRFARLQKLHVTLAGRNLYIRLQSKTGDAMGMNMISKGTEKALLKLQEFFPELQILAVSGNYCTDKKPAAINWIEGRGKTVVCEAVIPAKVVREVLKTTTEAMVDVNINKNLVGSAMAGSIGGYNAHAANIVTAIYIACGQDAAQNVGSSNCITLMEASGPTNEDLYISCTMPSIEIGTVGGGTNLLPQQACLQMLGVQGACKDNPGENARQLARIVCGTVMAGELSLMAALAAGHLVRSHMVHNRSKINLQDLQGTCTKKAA
Protocol: Rat Liver Microsomal Isolation Procedure:
Male Charles River Sprague-Dawley rats were fed with 2.5% cholestyramine in rat chow diets for 5 days before sacrificing. Livers were minced and homogenized in a sucrose homogenizing solution in an ice bath 10 times. Homogenates were diluted into a final volume of 200 mL, and centrifuged 15 min. with a Sorvall Centrifuge at 5° C., 10,000 rpm (12,000×G). The upper fat layer was removed and the supernatant decanted into fresh tubes. This step was repeated one more time before transferring the supernatant into ultracentrifuge tubes and centrifuged at 36,000 rpm (105,000×G) for an hour at 5° C. The resulting supernatant was discarded and the pellet was added to total of 15 mL 0.2 M KH2PO4. Pellets were homogenized gently by hand about 10 times. Samples were pooled and diluted into total of 60 mL buffer. The protein concentration of the homogenate was determined by the […] using a BCA (Bicinchoninic acid), kit from Pierce Chemical Company. 1 mL aliquots of microsomes were kept frozen in liquid nitrogen.
HMGCoA (3-Hydroxy-3-methylglutaryl CoA) Reductase Assay:
[3-^14C]-HMGCoA (57.0 mCi/mmol) was purchased from Amersham Biosciences, UK. HMGCoA, mevalonolactone, P-NADPH (P-Nicotinamide Adenine Dinucleotide Phosphate, Reduced form) were purchased from Sigma Chemical Co. AG 1-8×resin was purchased from Bio-Rad Laboratory. • 1. One μL of dimethyl sulfoxide (DMSO) or 1 μL of DMSO containing a test compound at a concentration sufficient to give a final assay concentration of between 0.1 nM to 1 mM was placed into each well of a Corning 96 well plate. A Volume of 34 µL of buffer (100 mM NaH2PO4, 10 mM Imidazole and 10 mM EDTA), (Ethylenediaminetetra acetic acid) containing with 50 µg/mL rat liver microsomes was added into each well. After incubation for 30 min. on ice, 15 µL of ^14C-HMGCoA (0.024 μCi) with 15 mM NADPH, 25 mM DTT, (Dithiothreitol) was added and incubated at 37° C. for an additional 45 min.
The reaction was terminated by the addition of 10 μL of HCl followed by 5 μL of mevalonolactone. Plates were incubated at room temperature overnight to allow lactonization of mevalonate to mevalonolactone. The incubated samples were applied to columns containing 300 μL of AG1-X8 anion exchange resin in a Corning filter plate.
The eluates were collected into Corning 96 well capture plates. Scintillation cocktail (Ultima-Flo-M) was added into each well and plates counted on a Trilux Microbeta Counter. The IC50 values were calculated with GraphPad software (Prism). Procedure: • 2. Add 1 μL DMSO or compounds into the wells according to the protocol • 3. Add 35 μL incubation buffer with the rat microsomes into each well. Incubate 30 min. at 4° C. • 4. Add 15 μL ^14C-HMGCoA. Incubate 45 min. at 37° C. • 5. Add 10 μL HCl stop reagent • 6. Add 5 μL mevelonolactone. Incubate overnight at room temperature • 7. Apply the containing into the AG 1-X8 anion exchange resin in Corning filter plate • 8. Collect the eluate into Corning capture plate • 9. Add scintillation cocktail Ultima-Flo-M • 10. Count on a Trilux Microbeta Counter μ • 11. Calculate IC50 values

melting point	SMILES	IC50 [1] [nM]	IC50 ([2]; Rattus norvegicus) [nM]	IC50 [3] [nM]	IC50 ([2]; cell assay, rat hepatocytes, 4 hrs pre-incubation, 4 hrs 14C acetic acid labeling, read-out: IC50) [nM]
130 to 134 °C (dec.)	CC(C)c1c(S(=O)(=O)Nc2ccccc2)c(-c2ccc(F)cc2)c(-c2ccc(F)cc2)n1CC[C@@H](O)C[C@@H](O)CC(=O)[O-].[Na+] [Example 1P, (3R,5R)-7-[2,3-bis-(4-fluoro-phenyl)-5-isopropyl-4-phenylsulfamoyl-pyrrol-1-yl]-3,5-dihydroxy-heptanoic acid monosodium salt]	–	–	–	–
–	CC(C)c1c(C(=O)NCc2ccccc2)nc(-c2ccc(F)cc2)n1CC[C@@H](O)C[C@@H](O)CC(=O)O [Example 4]	3070	0.42	7.9	–
> 250 °C	CC(C)c1c(S(=O)(=O)NCc2ccc(C(=O)[O-])cc2)c(-c2ccc(F)cc2)c(-c2ccc(F)cc2)n1CC[C@@H](O)C[C@@H](O)CC(=O)[O-].[Na+].[Na+] [Example 43P]	–	–	–	–
–	Cc1cc(CNC(=O)c2nc(-c3ccc(F)cc3)n(CC[C@@H](O)C[C@@H](O)CC(=O)O)c2C(C)C)no1 [Example 62]	703	0.58	7.2	–
–	CC(C)c1c(C(=O)N2CCN(c3ccc(F)cc3F)CC2)nc(-c2ccc(F)cc2)n1CC[C@@H](O)C[C@@H](O)CC(=O)O [Example 69]	159	0.18	2.2	–
–	O=C1C[C@H](O)C[C@@H](CCn2c(-c3ccc(F)cc3)nc(C(=O)NCc3ccccc3)c2C2CC2)O1 [Example 103, 5-Cyclopropyl-2-(4-fluoro-phenyl)-1-[2-((2R,4R)-4-hydroxy-6-oxo-tetrahydro-pyran-2-yl)-ethyl]-1H-imidazole-4-carboxylic acid benzylamide]	–	–	50.4	0.088
–	COc1ccc(CNC(=O)c2nc(-c3ccc(F)cc3)n(CC[C@@H]3C[C@@H](O)CC(=O)O3)c2C2CC2)cc1 [Example 104, 5-Cyclopropyl-2-(4-fluoro-phenyl)-1-[2-((2R,4R)-4-hydroxy-6-oxo-tetrahydro-pyran-2-yl)-ethyl]-1H-imidazole-4-carboxylic acid 4-methoxybenzylamide]	–	–	75.8	–
–	O=C(O)C[C@H](O)C[C@H](O)CCn1c(-c2ccc(F)cc2)nc(C(=O)NCc2ccccc2)c1C1CC1 [Example 110, Sodium: (3R,5R)-7-[4-Benzylcarbamoyl-5-cyclopropyl-2-(4-fluoro-phenyl)-imidazol-1-yl]-3,5-dihydroxy-heptanoate]	632	0.218	1.38	–
–	COc1ccc(CNC(=O)c2nc(-c3ccc(F)cc3)n(CC[C@@H](O)C[C@@H](O)CC(=O)O)c2C2CC2)cc1 [Example 111]	6400	0.146	1.17	–
–	CN(Cc1ccccc1)C(=O)c1nc(-c2ccc(F)cc2)n(CC[C@@H](O)C[C@@H](O)CC(=O)O)c1C1CC1 [Example 112]	73500	1.15	8.39	–
86 to 90 °C	CC(C)c1c(NC(=O)OCc2ccccc2)nc(-c2ccc(F)cc2)n1CC[C@@H](O)C[C@@H](O)CC(=O)[O-].[Na+] [Example 137, Sodium: (3R,5R)-7-[4-benzyloxycarbonylamino-2-(4-fluoro-phenyl)-5-isopropyl-imidazol-1-yl]-3,5-dihydroxy-heptanoate sodium salt]	–	–	–	–
